From US10253002B2, “Compounds and methods of treating infections” (Neoculi Pty Ltd., priority 2013, dated 2019)
Values after ≈ are worked out from the molar mass of the structure shown. Values joined by “and” are separate entries in the source; they are usually repeats but may differ in a detail not shown here. Identical values can stand only once. Like-named read-outs stand apart in the source and are kept apart here.

Assays:
MRSA = assay: Broth microdilution MIC, Example 7 (NCL812 and analogues); assay type: cell-based, Staphylococcus aureus; conditions: for activity against MRSA among analogues: MIC testing, two MRSA strains; for MIC: Staphylococcus aureus; for MRSA / MIC: MRSA
Summary of the method: (§1)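 Duplicates per isolate, repeated a third time if >one two-fold dilution apart. MIC50, MIC20 and range calculated per bacterial group.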

VRE = assay: as above; assay type: cell-based, Enterococcus spp.; conditions: for activity against VRE among analogues: MIC testing, two VRE strains; for MIC: Enterococcus; for VRE / MIC: VRE
Summary of the method: as §1

Escherichia coli = assay: as above; assay type: cell-based; conditions: E. coli, 24 hours; for MIC: Escherichia coli
Pseudomonas aeruginosa = assay: as above; assay type: cell-based; conditions: for MIC: Pseudomonas aeruginosa, 24 h
[1] = Bioassay ranking of the analogues tested; conditions: M + R (MRSA and VRE combined)
[2] = 24 hours, duplicate lines per compound
[3] = MRSA 2, 24 hours, duplicate lines per compound
[4] = VRE 2, 24 hours, duplicate lines per compound
[5] = 24 h, read-out: MIC (μg/ml) at 24 hours, MRSA 1, MRSA 1, 24 hours, duplicate lines per compound
[6] = 24 h, read-out: MIC (μg/ml) at 24 hours, MRSA 2, MRSA 2, 24 hours, duplicate lines per compound
[7] = bioassay ranking, read-out: MRSA
[8] = 24 h, read-out: MIC (μg/ml) at 24 hours, VRE 1, VRE 1, 24 hours, duplicate lines per compound
[9] = 24 h, read-out: MIC (μg/ml) at 24 hours, VRE 2, VRE 2, 24 hours, duplicate lines per compound
[10] = bioassay ranking, read-out: VRE
[11] = read-out: MIC (μg/ml) at 24 hours, duplicate lines per compound
[12] = read-out: MIC (μg/ml) at 24 hours, P. aeruginosa, 24 hours, duplicate lines per compound

Cl.N=C(N/N=C/c1ccc(Cl)cc1)N/N=C/c1ccc(Cl)cc1Cl [NCL074]
activity against MRSA among analogues (MRSA): greatest activity | MIC (μg/ml) at 24 hours, MRSA 1 (MRSA; [2]): 16 µg/mL | MIC (μg/ml) at 24 hours, MRSA 2 (MRSA; [3]): 16 µg/mL | MRSA (MRSA; bioassay ranking): 16 µg/mL | activity against VRE among analogues (VRE): greatest activity | MIC (μg/ml) at 24 hours, VRE 1 (VRE; [2]): 2 µg/mL and 1 µg/mL | MIC (μg/ml) at 24 hours, VRE 2 (VRE; [4]): 8 µg/mL and 4 µg/mL | VRE (VRE; bioassay ranking): 3.75 µg/mL | MIC (μg/ml) at 24 hours, E. coli (Escherichia coli; duplicate lines per compound): >128 µg/mL | MIC (μg/ml) at 24 hours, P. aeruginosa (Pseudomonas aeruginosa; [2]): >128 µg/mL | M + R [1]: 9.875 µg/mL

Cl.N=C(N/N=C/c1ccc(Cl)cc1)N/N=C/c1ccc(C(F)(F)F)cc1F [NCL078]
activity against MRSA among analogues (MRSA): greatest activity | MIC (μg/ml) at 24 hours, MRSA 2 (MRSA; [3]): 8 µg/mL | MIC (MRSA; [5]): 4 µg/mL | MIC (MRSA; [6]): 16 µg/mL | MIC (MRSA; [7]): 8 µg/mL | MIC (VRE; [8]): 4 µg/mL | MIC (VRE; [9]): 4 µg/mL | MIC (VRE; [10]): 3 µg/mL | activity against VRE among analogues (VRE): greatest activity | MIC (μg/ml) at 24 hours, VRE 1 (VRE; [2]): 2 µg/mL | MIC (μg/ml) at 24 hours, VRE 2 (VRE; [4]): 2 µg/mL | MIC (Escherichia coli; [11]): > 128 µg/mL | MIC (Pseudomonas aeruginosa; [12]): > 128 µg/mL | M + R [1]: 5.5 µg/mL

Cl.N=C(N/N=C/c1ccc(F)cc1)N/N=C/c1ccc(Cl)cc1 [NCL079]
activity against MRSA among analogues (MRSA): greatest activity | MIC (μg/ml) at 24 hours, MRSA 2 (MRSA; [3]): 8 µg/mL | MIC (MRSA; [5]): 4 µg/mL | MIC (MRSA; [6]): 4 µg/mL | MIC (MRSA; [7]): 5 µg/mL | MIC (VRE; [8]): 2 µg/mL | MIC (VRE; [9]): 4 µg/mL | MIC (VRE; [10]): 3 µg/mL | activity against VRE among analogues (VRE): greatest activity | MIC (Escherichia coli; [11]): > 128 µg/mL | MIC (Pseudomonas aeruginosa; [12]): > 128 µg/mL | M + R [1]: 4 µg/mL

C/C(=N\NC(=N)N/N=C/c1ccc(Cl)cc1)c1ccc(C(F)(F)F)cc1.Cl [NCL080]
activity against MRSA among analogues (MRSA): greatest activity | MIC (μg/ml) at 24 hours, MRSA 2 (MRSA; [3]): 8 µg/mL | MIC (MRSA; [5]): 4 µg/mL | MIC (MRSA; [6]): 4 µg/mL | MIC (MRSA; [7]): 5 µg/mL | MIC (VRE; [8]): 2 µg/mL | MIC (VRE; [9]): 4 µg/mL | MIC (VRE; [10]): 3 µg/mL | activity against VRE among analogues (VRE): greatest activity | MIC (Escherichia coli; [11]): > 128 µg/mL | MIC (Pseudomonas aeruginosa; [12]): > 128 µg/mL | M + R [1]: 4 µg/mL

C/C(=N\NC(=N)N/N=C/c1ccc(Cl)cc1)c1ccc(Cl)cc1.Cl [NCL081]
activity against MRSA among analogues (MRSA): greatest activity | MIC (μg/ml) at 24 hours, MRSA 1 (MRSA; [2]): 4 µg/mL | MIC (μg/ml) at 24 hours, MRSA 2 (MRSA; [3]): 8 µg/mL and 4 µg/mL | MRSA (MRSA; bioassay ranking): 5 µg/mL | activity against VRE among analogues (VRE): greatest activity | MIC (μg/ml) at 24 hours, VRE 1 (VRE; [2]): 1 µg/mL | MIC (μg/ml) at 24 hours, VRE 2 (VRE; [4]): 4 µg/mL | VRE (VRE; bioassay ranking): 2.5 µg/mL | MIC (μg/ml) at 24 hours, E. coli (Escherichia coli; duplicate lines per compound): >128 µg/mL | MIC (μg/ml) at 24 hours, P. aeruginosa (Pseudomonas aeruginosa; [2]): >128 µg/mL | M + R [1]: 3.75 µg/mL

Cl.N=C(N/N=C/c1ccc(Cl)cc1)N/N=C/c1ccccc1Cl [NCL082]
activity against MRSA among analogues (MRSA): greatest activity | MIC (μg/ml) at 24 hours, MRSA 1 (MRSA; [2]): 8 µg/mL and 4 µg/mL | MIC (μg/ml) at 24 hours, MRSA 2 (MRSA; [3]): 8 µg/mL | MRSA (MRSA; bioassay ranking): 7 µg/mL | activity against VRE among analogues (VRE): greatest activity | MIC (μg/ml) at 24 hours, VRE 1 (VRE; [2]): 4 µg/mL | MIC (μg/ml) at 24 hours, VRE 2 (VRE; [4]): 2 µg/mL and 4 µg/mL | VRE (VRE; bioassay ranking): 3.5 µg/mL | MIC (μg/ml) at 24 hours, E. coli (Escherichia coli; duplicate lines per compound): >128 µg/mL | MIC (μg/ml) at 24 hours, P. aeruginosa (Pseudomonas aeruginosa; [2]): >128 µg/mL | M + R [1]: 5.25 µg/mL

Cl.N=C(N/N=C/c1ccc(Cl)cc1)N/N=C/c1ccc(Cl)cc1F [NCL084]
activity against MRSA among analogues (MRSA): greatest activity | MIC (μg/ml) at 24 hours, MRSA 2 (MRSA; [3]): 4 µg/mL | MIC (MRSA; [5]): 2 µg/mL | MIC (MRSA; [6]): 8 µg/mL | MIC (MRSA; [7]): 4 µg/mL | MIC (VRE; [8]): 2 µg/mL | MIC (VRE; [9]): 2 µg/mL | MIC (VRE; [10]): 2 µg/mL | activity against VRE among analogues (VRE): greatest activity | MIC (Escherichia coli; [11]): > 128 µg/mL | MIC (Pseudomonas aeruginosa; [12]): > 128 µg/mL | M + R [1]: 3 µg/mL

Cl.N=C(NN=Cc1ccc(Cl)cc1)NN=Cc1ccccc1F [NCL088]
activity against MRSA among analogues (MRSA): greatest activity | MIC (μg/ml) at 24 hours, MRSA 1 (MRSA; [2]): 16 µg/mL and 8 µg/mL | MIC (μg/ml) at 24 hours, MRSA 2 (MRSA; [3]): 8 µg/mL | MRSA (MRSA; bioassay ranking): 10 µg/mL | activity against VRE among analogues (VRE): greatest activity | MIC (μg/ml) at 24 hours, VRE 1 (VRE; [2]): 4 µg/mL | MIC (μg/ml) at 24 hours, VRE 2 (VRE; [4]): 4 µg/mL | VRE (VRE; bioassay ranking): 4 µg/mL | MIC (μg/ml) at 24 hours, E. coli (Escherichia coli; duplicate lines per compound): >128 µg/mL | MIC (μg/ml) at 24 hours, P. aeruginosa (Pseudomonas aeruginosa; [2]): >128 µg/mL | M + R [1]: 7 µg/mL

C/C(=N\NC(=N)N/N=C(\C)c1ccc(C(F)(F)F)cc1)c1ccc(Cl)cc1.Cl [NCL089]
activity against MRSA among analogues (MRSA): greatest activity | MIC (μg/ml) at 24 hours, MRSA 1 (MRSA; [2]): 8 µg/mL | MIC (MRSA; [5]): 4 µg/mL | MIC (MRSA; [6]): 4 µg/mL | MIC (MRSA; [7]): 5 µg/mL | MIC (VRE; [8]): 0.5 µg/mL | MIC (VRE; [9]): 1 µg/mL | MIC (VRE; [10]): 0.75 µg/mL | MIC (μg/ml) at 24 hours, VRE 2 (VRE; [4]): 1 µg/mL | MIC (Escherichia coli; [11]): > 128 µg/mL | MIC (Pseudomonas aeruginosa; [12]): > 128 µg/mL | M + R [1]: 2.875 µg/mL

Cl.N=C(N/N=C/c1ccccc1O)N/N=C/c1ccccc1O [NCL107]
activity against MRSA among analogues (MRSA): greatest activity | MIC (μg/ml) at 24 hours, MRSA 1 (MRSA; [2]): 8 µg/mL | MIC (μg/ml) at 24 hours, MRSA 2 (MRSA; [3]): 16 µg/mL | MRSA (MRSA; bioassay ranking): 12 µg/mL | activity against VRE among analogues (VRE): greatest activity | MIC (μg/ml) at 24 hours, VRE 1 (VRE; [2]): 32 µg/mL | MIC (μg/ml) at 24 hours, VRE 2 (VRE; [4]): 128 µg/mL | MIC (μg/ml) at 24 hours, E. coli (Escherichia coli; duplicate lines per compound): >128 µg/mL | MIC (μg/ml) at 24 hours, P. aeruginosa (Pseudomonas aeruginosa; [2]): >128 µg/mL | M + R [1]: 46 µg/mL

CN(C)c1ccc(C=NNC(=N)NN=Cc2ccc(N(C)C)cc2)cc1.Cl [NCL113]
activity against MRSA among analogues (MRSA): greatest activity | MIC (μg/ml) at 24 hours, MRSA 1 (MRSA; [2]): 16 µg/mL | MIC (μg/ml) at 24 hours, MRSA 2 (MRSA; [3]): 8 µg/mL | MRSA (MRSA; bioassay ranking): 12 µg/mL | activity against VRE among analogues (VRE): greatest activity | MIC (μg/ml) at 24 hours, VRE 1 (VRE; [2]): 8 µg/mL | MIC (μg/ml) at 24 hours, VRE 2 (VRE; [4]): 16 µg/mL | VRE (VRE; bioassay ranking): 12 µg/mL | MIC (μg/ml) at 24 hours, E. coli (Escherichia coli; duplicate lines per compound): >128 µg/mL | MIC (μg/ml) at 24 hours, P. aeruginosa (Pseudomonas aeruginosa; [2]): >128 µg/mL | M + R [1]: 12 µg/mL

Nc1nc(N/N=C/c2ccc(Br)cc2)cc(N/N=C/c2ccc(Br)cc2)n1 [NCL193]
activity against MRSA among analogues (MRSA): greatest activity | MIC (μg/ml) at 24 hours, MRSA 2 (MRSA; MRSA 2, 24 hours): 4 µg/mL (≈ 8.18 µM) | MIC (MRSA; 24 h, read-out: MIC (μg/ml) at 24 hours MRSA 1, MRSA 1, 24 hours): 2 µg/mL (≈ 4.09 µM) | MIC (MRSA; 24 h, read-out: MIC (μg/ml) at 24 hours MRSA 2, MRSA 2, 24 hours): 2 µg/mL (≈ 4.09 µM) | MIC (MRSA; [7]): 2.5 µg/mL (≈ 5.11 µM) | MIC (VRE; 24 h, read-out: MIC (μg/ml) at 24 hours VRE 1, VRE 1, 24 hours): 4 µg/mL (≈ 8.18 µM) | MIC (VRE; 24 h, read-out: MIC (μg/ml) at 24 hours VRE 2, VRE 2, 24 hours): 4 µg/mL (≈ 8.18 µM) | MIC (VRE; [10]): 5 µg/mL (≈ 10.2 µM) | activity against VRE among analogues (VRE): greatest activity | MIC (μg/ml) at 24 hours, VRE 2 (VRE; VRE 2, 24 hours): 8 µg/mL (≈ 16.4 µM) | MIC (Escherichia coli; read-out: MIC (μg/ml) at 24 hours E. coli): > 128 µg/mL | MIC (Pseudomonas aeruginosa; read-out: MIC (μg/ml) at 24 hours P. aeruginosa, P. aeruginosa, 24 hours): > 128 µg/mL | M + R [1]: 3.75 µg/mL
